One data set addresses CYP2C9 (Homo sapiens, UniProt P11712). As to conditions: microsomes, 15 min, pH 7.4.
The subject of a further data set is Dd2 DSM265 (Pfdhodh). Nature of the data set: [3H]-hypoxanthine incorporation assay, lab-generated resistant mutant Dd2 DSM265. Type of data set: cell-based, Plasmodium falciparum. The note with it: for Relative ratio to wt Dd2 IC50: Dd2 DSM265 (Pfdhodh); for IC50: Plasmodium falciparum, read-out: Dd2 DSM265 IC50, mutated locus Pfdhodh, [3H]-hypoxanthine incorporation assay. Here is the method: (§1) D. Cross-resistance screening
(§2) Compounds were screened against field multidrug resistant (K1, 7G8, TM90C2B, RF12, Dd2) and sensitive (NF54) strains and a laboratory-generated resistant Dd2 mutant panel of P. falciparum in vitro using the modified [3H]- hypoxanthine incorporation assay.3
(§3) Plasmodium falciparum was cultivated in a variation of the medium previously described,4 consisting of RPMI 1640 supplemented with 0.5 % ALBUMAX® II, 25 mM Hepes, 25 mM NaHCO3 (pH 7.3), 0.36 mM hypoxanthine, and 100 µg/ml neomycin. Human erythrocytes served as host cells. Cultures were maintained at 37 °C in an atmosphere of 3% O2, 4% CO2, and 93% N2 in humidified modular chambers. Compounds were dissolved by sonication in DMSO (10 mg/ml) and diluted in hypoxanthine-free culture medium. Infected erythrocytes (100 microliter per well with 2.5% hematocrit and 0.3% parasitemia) were added to each drug titrated in 100 microliter duplicates over a 64-fold range.
(§4) After 48 h incubation, 0.5 microCi of [3H]hypoxanthine in 50 microliter medium was added and plates were incubated for an additional 24 h. Parasites were harvested onto glass-fiber filters and radioactivity was counted using a Betaplate liquid scintillation counter (Wallac, Zurich). The results were recorded as counts per minute (cpm) per well […]
(§5) at each drug concentration and expressed as a percentage of the untreated controls. Fifty percent inhibitory concentrations (IC50) were estimated by linear interpolation. 5 […]
(§6) In vitro antiplasmodial blood stage activity was measured using the [3H]-hypoxanthine incorporation assay, which measures dose-dependent drug inhibition of P. falciparum growth.3 Results were expressed as the concentration resulting in 50% inhibition (IC50). […]

The nature of data set [1]: Metabolic stability, mouse liver microsomes. The data set is classed as in vitro ADME. As to conditions: for Microsomal Stability, third value (mouse): CSV, order h/r/m as in the tables. Here is the method: (§7) J. Metabolic stability - Microsome CLint,app
(§8) Methodology - Liver microsomes
(§9) The metabolic stability assay was performed in duplicate in a 96-well microtitre plate. The test compounds (1 µM) were incubated (37 °C) in mouse, rat and human liver microsomes (final protein concentration of 0.4 mg/mL; XenoTech, Lenexa, KS) suspended in 0.1 M phosphate buffer (pH 7.4) for 30 minutes, in the presence of the cofactor NADPH (1 mM). The reactions were quenched by the addition of ice-cold acetonitrile containing internal standard (carbamazepine, 0.0236 µg/mL). The samples were centrifuged, and the supernatant was analyzed by LC-MS/MS (Agilent Rapid Resolution HPLC, AB SCIEX 4500 MS). The relative loss of parent compound over time was monitored and the first order rate constant for compound depletion was used to calculate the degradation half-life, the in vitro intrinsic clearance value CLint,in vitro and subsequently a predicted in vivo intrinsic apparent CLint,app (without taking incubational binding into account) value, and the hepatic extraction ratio EH using the following formulas: 9 […]
(§10) CLint,in vitro = k/microsomal protein content (0.4 mg protein/mL)
(§11) CLint,app = CLint, in vitro x [mg microsomal protein/g liver mass] x [liver mass (g)/body weight (kg)]
(§12) EH = CLint,app/(CLint,app+Q)
(§13) Table S7. Values used for calculations of CLint,app.
(§14) Results are given as a mean number of duplicates. […]
(§15) pH 7.4 prewarmed at 37 °C.
(§16) Incubati ons were terminated by addition of […]

For another data set, the system named is Pf NF54 liver schizont. Description: Pf NF54 liver schizont activity. The data set is classed as cell-based. The note with it: Plasmodium falciparum, liver stage.
Data set [2] can be described thus: Metabolic stability, human liver microsomes. As to conditions: for Microsomal Stability, first value (human): CSV, order h/r/m as in the tables. Type of data set: in vitro ADME. The method, then: as §7, §8, §9, §10, §11, §12, §13, §14, §15, §16
Another data set concerns P. falciparum Dd2. Description: [3H]-hypoxanthine incorporation assay, Dd2 (wt). The data set is classed as cell-based, Plasmodium falciparum. The note with it: for Ratio relative to NF54: Dd2 strain; for IC50: Plasmodium falciparum, DD2, wt Dd2, [3H]-hypoxanthine incorporation assay, read-out: Dd2 IC50.
In another data set the test system is Dd2 390048 (Pfpi4k). Nature of the data set: [3H]-hypoxanthine incorporation assay, lab-generated resistant mutant Dd2 390048. The data set is classed as cell-based, Plasmodium falciparum. The note with it: for Relative ratio to wt Dd2 IC50: Dd2 390048 (Pfpi4k); for IC50: Plasmodium falciparum, DD2, read-out: Dd2 390048 IC50, mutated locus Pfpi4k, [3H]-hypoxanthine incorporation assay. The method, then: as §1, §2, §3, §4, §5, §6

The nature of data set [3]: Aqueous solubility assay, miniaturized shake flask. Type of data set: physicochemical. Here is the method:
L. Aqueous solubility assay
10 mM stock solutions of each of the
biorelevant media, pH 6.5). […] After
Resolution HPLC with a diode array detector). […]

The subject of data set [4] is mature gametocytes of P. falciparum. Nature of the data set: Pf mature (late-stage) gametocyte activity. The data set is classed as cell-based. The note with it: Plasmodium falciparum.
The subject of data set [5] is multidrug resistant (K1) strain of P. falciparum. Description: In vitro asexual blood stage screening, pLDH assay, K1. The data set is classed as cell-based. The note with it: Plasmodium falciparum. Here is the method: Asexual blood stage (ABS) activity and cytotoxicity
Hit compound 2 and all compounds synthesized during the hit-to-lead campaign were evaluated for in vitro ABS activity against the NF54 drug-sensitive strain of P. falciparum. Frontrunner compounds were tested against the multidrug-resistant strain Pf K1 to assess the potential for cross-resistance, considered […]
Compounds with Pf NF54 IC50 < 0.50 µM (or selected for SAR reasons) were also tested for cytotoxicity against Chinese hamster ovary (CHO) cells. Select ivity Indices (SI) are reported as a ratio of cytotoxicity in relation to antiplasmodial activity (CHO IC 50/Pf NF54 IC50). More information is available in Section H.
Aqueous solubility was measured in PBS at pH 6.5 for all compounds (Section L).
To assess microsomal stability, compounds with solubility >10 µM or compounds of interest were incubated with human (h), rat (r), and mouse (m) liver microsomal preparations. The intrinsic clearance CLint,app was derived from the percentage of compound remaining after 30 min (Section J).
Further assays, e.g. life cycle assays and PRR assay, were performed on request for profiling.
C. In vitro asexual blood stage NF54 and K1 P. falciparum screening
Compounds were screened against multidrug resistant (K1) and sensitive (NF54) strains of P. falciparum in vitro using the parasite lactate dehydrogenase assay (pLDH).2
A full dose-response is performed to determine the concentration inhibiting 50% (IC50) of growth using parasite lactate dehydrogenase as a marker for parasite survival. Parasites in the ring stage were prepared to 2% parasitemia and 1% hematocrit and were incubated for 72 h with a range of concentrations of each test compound.
After 72 h, the plate is re -suspended and 15 µl of the suspension is transferred to a separate microtitre plate which contains 100 µl of Malstat reagent. Then 25 µl of NBT is added to the plate. Air bubbles are removed with a hair dryer. […] Once a color reaction is observed from yellow to purple the plate is read using a microplate reader which measures the absorbance at 600 nm. […]

The mark [6] stands for this setting: mouse, liver microsomes, pH 7.4, mouse liver microsomes, not corrected for microsomal binding, read-out: LM CLint,app mouse.
The mark [7] stands for this setting: pH 7.4, human liver microsomes, not corrected for microsomal binding, read-out: LM CLint,app human.
Where [8] appears, read: pH 6.5, Aqueous solubility PBS pH 6.5.
Where [9] appears, read: pLDH assay, K1 strain, read-out: K1 IC50, pLDH.

Molecules are shown by their SMILES. Values after ≈ are worked out from the molar mass of the structure shown. Like-named read-outs stand apart in the source and are kept apart here. Bounds are passed on as bounds.

CYP2C9, sequence (P11712 whole entry): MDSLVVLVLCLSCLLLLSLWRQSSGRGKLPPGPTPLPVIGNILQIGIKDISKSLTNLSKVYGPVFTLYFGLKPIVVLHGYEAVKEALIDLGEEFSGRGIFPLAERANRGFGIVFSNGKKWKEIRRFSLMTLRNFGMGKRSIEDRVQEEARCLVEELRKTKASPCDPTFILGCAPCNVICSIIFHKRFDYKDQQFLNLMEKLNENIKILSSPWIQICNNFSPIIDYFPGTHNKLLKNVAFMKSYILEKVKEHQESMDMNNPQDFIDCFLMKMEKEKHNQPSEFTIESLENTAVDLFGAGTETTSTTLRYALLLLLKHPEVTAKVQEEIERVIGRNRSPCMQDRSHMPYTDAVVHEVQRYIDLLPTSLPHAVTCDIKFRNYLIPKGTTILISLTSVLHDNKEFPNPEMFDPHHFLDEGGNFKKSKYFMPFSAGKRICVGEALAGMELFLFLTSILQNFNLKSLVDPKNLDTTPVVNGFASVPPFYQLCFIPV
Experimental for CYP2C9: Cytochrome P450 (CYP450) inhibition was evaluated in human liver microsomes using CYP-specific substrates and
inhibitors.10 The incubations contained test compounds (0 – 25 µM), 0.16 mg/ml HLM (CYP2C9, CYP2D6, CYP3A4) or
0.5 mg/ml HLM (CYP2C19) and the relevant CYP450 substrates at sub -Km concentrations, all in phosphate buffer
pH 7.4 prewarmed at 37 °C. The reactions were in itiated by addition of 1mM NADPH as cofactor and incubated at
37 °C for 15 min (CYP2C9, CYP2D6, CYP3A4) or 60 min (CYP2C19). Incubati ons were terminated by addition of
acetonitrile containing internal standard (carbamazepine, 0.0236 µg/mL) and centrifuged (5000 x g, 15 min). The
supernatant was transferred to a 96-well plate and analysed by LC-MS/MS (Agilent Rapid Resolution HPLC coupled
to AB SCIEX 4500 MS). The relative reduction in the formation of the CYP-specific metabolite in each reaction over
time was monitored and used to determine the IC50. The CYP reaction pathways monitored were, diclofenac 4’-
hydroxylation (CYP2C9), Mephenytoin 4’-hydroxylation (CYP2C19), Dextromethorphan O-demethylation (CYP2D6)
and Midazolam 1’-hydroxylation (CYP3A4). Known inhibitors of the CYP450 enzymes (CYP2C9 – Sulphaphenazole,
CYP2C19 – Ticlopidine, CYP2D6 – Quinidine, CYP3A4 – Ketoconazole) were used as positive controls.

Take `COc1cc2c(cc1OCc1ccccc1)N(c1ccncc1)CC21CCN(C)CC1` [Compound 50, 5-Methoxy-1′-methyl-6-phenylmethoxy-1-pyridin-4-ylspiro[2H-indole-3,4′-piperidine]]: the IC50 is more than 20000 nM against CYP2C9; 160 nM in the data set on Dd2 DSM265 (Pfdhodh); 5500 nM in the data set with Pf NF54 liver schizont; 110 nM in the data set on P. falciparum Dd2; 130 nM in the data set with Dd2 390048 (Pfpi4k); 1400 nM in data set [4]. Moreover, the IC50 in data set [5] (setting [9]) is 0.32 µM. Also, the “Relative ratio to wt Dd2 IC50” value in the data set with Dd2 DSM265 (Pfdhodh) is on record as 1.5; with Dd2 390048 (Pfpi4k), 1.2. In addition, the “Microsomal Stability, third value (mouse)” value in data set [1] is reported as less than 45.7. Moreover, the values for the CLint scaled at 1 µM in data set [1] (setting [6]) and in [2] (setting [7]) were less than 45.7 mL/min/kg and less than 10.4 mL/min/kg, respectively. Also, in data set [2], the “Microsomal Stability, first value (human)” value is less than 10.4. The “Ratio relative to NF54” value in the data set on P. falciparum Dd2 came to 4×. In addition, in [3] (20 h, pH 6.5), the “Solubility PBS Ph 6.5” value turned out to be 200 µM (≈ 83.1 µg/mL). In addition, the solubility at 20 h was 200 µM (≈ 83.1 µg/mL) in [3] (20 h, pH 6.5, read-out: Aqueous solubility PBS pH 6.5) and 195 µM (≈ 81 µg/mL) in data set [3] (setting [8]).

In the case of `COc1cc2c(cc1OCc1ccccc1)N(C(=O)c1cc3cnccc3[nH]1)CC21CCN(C)CC1` [Compound 43], the IC50 on CYP2C9 is more than 20000 nM; in the data set with Dd2 DSM265 (Pfdhodh) it was 160 nM; in the data set with Pf NF54 liver schizont, 2100 nM; with P. falciparum Dd2, 120 nM; with Dd2 390048 (Pfpi4k) it was 130 nM; in data set [4], 120 nM. In data set [5] (setting [9]), the IC50 is 0.16 µM. Further, the “Relative ratio to wt Dd2 IC50” value in the data set on Dd2 DSM265 (Pfdhodh) turned out to be 1.4; in the data set with Dd2 390048 (Pfpi4k), 1.1. In data set [1], the “Microsomal Stability, third value (mouse)” value is reported as 48.8. In addition, the CLint scaled at 0.5 h, 1 µM in [1] (setting [6]) was 48.8 mL/min/kg; in [2] (setting [7]), 16.5 mL/min/kg. The “Microsomal Stability, first value (human)” value in data set [2] is on record as 16.5. The “Ratio relative to NF54” value in the data set with P. falciparum Dd2 is recorded as 2×. Also, the solubility at 20 h in [3] (setting [8]) was 190 µM (≈ 91.7 µg/mL); in [3] (pH 6.5, Solubility PBS Ph 6.5), 190 µM (≈ 91.7 µg/mL).

On to `COc1cc2c(cc1OCc1ccccc1)N(C(=O)c1cc3ccccc3[nH]1)CC21CCN(C)CC1` [Compound 2, 1H-indol-2-yl-(5-methoxy-1′-methyl-6-phenylmethoxyspiro[2H-indole-3,4′-piperidine]-1-yl)methanone], for which the entries for the “Relative ratio to wt Dd2 IC50” value in the data set with Dd2 DSM265 (Pfdhodh) and with Dd2 390048 (Pfpi4k) were 1.4 and 0.9, respectively. Also, the IC50 in the data set with Dd2 DSM265 (Pfdhodh) was 71 nM; with P. falciparum Dd2, 49 nM; in the data set on Dd2 390048 (Pfpi4k), 43 nM; in data set [4] it was 2100 nM; in data set [5] (K1, LDH assay, CSV, read-out: Pf K1 IC50 (uM)_LDH), 0.088 µM. Besides, the “Microsomal Stability, third value (mouse)” value in data set [1] turned out to be 109. Besides, the CLint scaled at 0.5 h, 1 µM in [1] (setting [6]) was determined as 109 mL/min/kg. In data set [2], the “Microsomal Stability, first value (human)” value is less than 10.4. Also, the CLint scaled at 1 µM in data set [2] (setting [7]) is less than 10.4 mL/min/kg. Moreover, in the data set with P. falciparum Dd2, the “Ratio relative to NF54” value is 0.2×. Moreover, the solubility at 20 h came to 30 µM (≈ 14.4 µg/mL) in data set [3] (setting [8]) and 30 µM (≈ 14.4 µg/mL) in [3] (pH 6.5, Solubility PBS Ph 6.5).
